Data on one compound can be found in PMC5071672 (2016).

In assay [1] the test system is duplex-[(dAdT)12·(dAdT)12] (DNA, duplex) ATATATATATATATATATATATAT
In words: ITC. Conditions: 100 mM KCl; 25 mM MOPS, 1 mM EDTA, pH 7.1, 25 °C; too weak to be analysed.

Assay [2] relates to duplex-[(dGdC)12·(dGdC)12] (DNA, duplex) GCGCGCGCGCGCGCGCGCGCGCGC
The assay can be described thus: ITC. Conditions: 100 mM KCl; 25 mM MOPS, 1 mM EDTA, pH 7.1, 25 °C; site 1 of 2; ill-defined, SI favours higher value.

Assay [3] concerns 22AG (DNA, G4) AGGGTTAGGGTTAGGGTTAGGG
In words: ITC. Conditions: 100 mM KCl; 25 mM MOPS, 1 mM EDTA, pH 7.1, 25 °C; site 1 of 2.

The test system of assay [4] is c-myc (DNA, G4) TGAGGGTGGGTAGGGTGGGTAA
The assay can be described thus: ITC. Conditions: 100 mM KCl; 25 mM MOPS, 1 mM EDTA, pH 7.1, 25 °C; site 1 of 2; nB restricted to 2.

Assay [5] has as its system duplex-[(dAdT)12·(dAdT)12] (DNA, duplex) ATATATATATATATATATATATAT
In words: UV/visible titration. Conditions: 100 mM KCl; 25 mM MOPS, 1 mM EDTA, pH 7.1, 20 °C (text: 25 °C); 2 µM ligand; affinity printed as negligible.

For assay [6], the system named is duplex-[(dGdC)12·(dGdC)12] (DNA, duplex) GCGCGCGCGCGCGCGCGCGCGCGC
The assay can be described thus: UV/visible titration. Conditions: 100 mM KCl, 25 mM MOPS, 1 mM EDTA, pH 7.1, 20 °C (text: 25 °C), apparent, per site, MIS model.

The subject of assay [7] is 22AG (DNA, G4) AGGGTTAGGGTTAGGGTTAGGG
In words: UV/visible titration. Particulars: 100 mM KCl, 25 mM MOPS, 1 mM EDTA, pH 7.1, 20 °C (text: 25 °C), apparent, per site, MIS model.

Assay [8] concerns c-myc (DNA, G4) TGAGGGTGGGTAGGGTGGGTAA
In words: UV/visible titration. Particulars: 100 mM KCl, 25 mM MOPS, 1 mM EDTA, pH 7.1, 20 °C (text: 25 °C), apparent, per site, MIS model.

The test system of assay [9] is duplex-[(dAdT)12·(dAdT)12] (DNA, duplex) ATATATATATATATATATATATAT
The assay can be described thus: fluorescence titration. Particulars: 100 mM KCl; 25 mM MOPS, 1 mM EDTA, pH 7.1, 20 °C (text: 25 °C); 2 µM ligand; affinity printed as negligible.

In assay [10] the test system is duplex-[(dGdC)12·(dGdC)12] (DNA, duplex) GCGCGCGCGCGCGCGCGCGCGCGC
The assay can be described thus: fluorescence titration. Particulars: 100 mM KCl, 25 mM MOPS, 1 mM EDTA, pH 7.1, 20 °C (text: 25 °C), apparent, per site, MIS model.

For assay [11], the system named is 22AG (DNA, G4) AGGGTTAGGGTTAGGGTTAGGG
In words: fluorescence titration. Conditions: 100 mM KCl, 25 mM MOPS, 1 mM EDTA, pH 7.1, 20 °C (text: 25 °C), apparent, per site, MIS model.

Assay [12] has as its system c-myc (DNA, G4) TGAGGGTGGGTAGGGTGGGTAA
The assay can be described thus: fluorescence titration. Particulars: 100 mM KCl, 25 mM MOPS, 1 mM EDTA, pH 7.1, 20 °C (text: 25 °C), apparent, per site, MIS model.

With `C[n+]1cccc(-c2cc3c4cc(-c5ccc[n+](C)c5)c5nc(C(F)(F)C(F)(F)C(F)(F)F)nc6c(-c7ccc[n+](C)c7)cc(c7cc(-c8ccc[n+](C)c8)c8nc(C(F)(F)C(F)(F)C(F)(F)F)nc2c8c37)c4c56)c1`, the binding entry in assay [1], in assay [5] and in assay [9] was “weak” throughout. Further, the “K A” value in [2] is given as 1.2×10^5 (<8×10^6) M^-1; in [3] it was 3.8×10^6 (<36×10^6) M^-1; in [4] it was 1.3×10^7 (>0.4×10^7) M^-1. The K b result in assay [6] is given as “(2.6±0.9) × 10^6 M^-1”; in assay [7] it was “(8.4±2.2) × 10^6 M^-1”; in [8], “(23.8±7.3) × 10^6 M^-1”; in [10], “(2.6±0.7) × 10^6 M^-1”; in [11], “(1.2±0.2) × 10^6 M^-1”; in [12], “(23.1±5.9) × 10^6 M^-1”.
